In US5591758A, “Organic nitrates, processes for their preparation and their use in the treatment of cardiovascular diseases” (Laboratoires Hoechst, SA, priority 1991, dated 1997):
Where a name gives a salt, the structure may show the parent alone.

Tests used:
[1] = tested on: isolated pulmonary vessel; test: Relaxant activity on blood vessels isolated from guinea pigs (pulmonary artery); details: Cavia porcellus; guinea pig pulmonary artery, K+ depolarised, Ca2+ contraction; read-out: IC50 (relaxation of 50%)
Description: Determination of the relaxant activity of the compounds according to the invention on blood vessels isolated from guinea pigs.
The pulmonary artery of male guinea pigs (350-500 g) is isolated and cut into spiral tracts (1 mm wide, 15 mm long). […] After having removed the calcium from the tissues (Tyrode without calcium and 0.2 mM EDTA), the tracts are depolarised in the presence of a concentrated solution of K^+ ions (40 mM), which is produced by replacing the NaCl by equimolar amounts of KCl, and a contraction of long duration is then induced by Ca^2+ ions (0.5 mM).
The compounds studied are then introduced into the organ cell in increasing concentrations.
Each compound is tested on at least four vessel spiral tracts.

anesthetised pigs = test: Haemodynamic effects on anesthetised pigs; assay type: in vivo, pigs ("German land" race)
Description: Haemodynamic effects of the compounds according to the invention on anesthetised pigs or dogs
Pigs are of "German land" race (20-26 kg) and are used after fasting overnight.
In the case of pigs, sedation, analgesia and anesthesia are induced by ketamine HCl (20 mg/kg i.m.), methonidate HCl (10 mg/kg i.m.), xylacine HCl (3 mg/kg i.m.) and sodium pentobarbitol (25-30 mg/kg as bolus i.v. or 0.16 mg/kg/min as i.v. perfusion).
The pigs or dogs are placed under artificial respiration in ambient air. Analysis of the blood gases (pO2, pCO2) is carried out at regular intervals and oxygen can be supplied via the respirator, if necessary.
The haemodynamic parameters recorded include the left ventricular pressure (LVP; Millar PC350 Tip catheter inserted via the carotid artery), systemic blood pressure (BPs, BPd; full catheter in a femoral artery), the end pressure of the left ventricular diastole (LVEDP), the ventricular contractility (LVPdp/dtmax) and the heart rate (HR).
The haemodynamic variables are recorded continuously for 1 to 3 hours, as a function of the period of action of the compound.
The effects of the compounds studied are shown as the absolute difference with respect to the base value (bv) measured before administration of the compounds and are shown in Table VII (a,b,c).
An antianginal activity is estimated by a fall in the BPs and the LVEDP (fall in venous return).

| SMILES | IC50 [1] | BPs (min), period of action (anesthetised pigs; pigs, 3,0 mg/kg i.d.) | BPs, difference to base value (anesthetised pigs; pigs, 3,0 mg/kg i.d.) | LVRDP (min), period of action (anesthetised pigs; pigs, 3,0 mg/kg i.d.) | LVRDP, difference to base value (anesthetised pigs; pigs, 3,0 mg/kg i.d.) | BPs, difference to base value (anesthetised pigs; pigs, 1,0 mg/kg i.d.) | LVRDP, difference to base value (anesthetised pigs; pigs, 1,0 mg/kg i.d.) | BPs (min), period of action (anesthetised pigs; pigs, 10,0 mg/kg i.d.) | BPs, difference to base value (anesthetised pigs; pigs, 10,0 mg/kg i.d.) | LVRDP (min), period of action (anesthetised pigs; pigs, 10,0 mg/kg i.d.) | LVRDP, difference to base value (anesthetised pigs; pigs, 10,0 mg/kg i.d.) |
| --- | --- | --- | --- | --- | --- | --- | --- | --- | --- | --- | --- |
| O=C(CNC(=O)[C@@H]1CSCN1)N[C@H]1CO[C@H]2[C@@H]1OC[C@@H]2O[N+](=O)[O-] [Compound 46, 5-[[2-[[(4-L-Thiazolidinyl)carbonyl]amino]-1oxoethyl]amino]-5-deoxy-2-O-nitro-1,4:3,6-dianhydro-L-iditol monohydrochloride] | 38 µM | > 120 min | -30 mmHg | > 120 min | -5,0 mmHg |  |  |  |  |  |  |
| O=[N+]([O-])O[C@@H]1CO[C@H]2[C@@H]1OC[C@@H]2O [IS-5-MN, isosorbide 5-mononitrate, reference compound] | > 100 µM | 60 min | -5 mmHg | 60 min | -3 mmHg | 0 mmHg | 0 mmHg | > 120 min | -26 mmHg | > 120 min | -3,0 mmHg |
